# Reference: PubChem BioAssay (NCI)
#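 Dose response: 5 concentrations. Exposure: 48 h. Format: 96-well plates. Endpoint: linear interpolation; highest concentration if not reached. GI50 is the concentration that inhibits growth by half. Definition used: TGI = concentration required for complete inhibition of growth.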
# How the values were obtained:
# Test in all cases: NCI tumour cell line growth inhibition, 48 h
# SK-MEL-5 melanoma = tested on: SK-MEL-5 melanoma
# LOX IMVI melanoma = tested on: LOX IMVI melanoma
# BT-549 breast = tested on: BT-549 breast
# HOP-62 NSCLC = tested on: HOP-62 NSCLC
# COLO 205 colon = tested on: COLO 205 colon
# HOP-92 NSCLC = tested on: HOP-92 NSCLC
# CCRF-CEM leukemia = tested on: CCRF-CEM leukemia
# HCC-2998 colon = tested on: HCC-2998 colon
# EKVX NSCLC = tested on: EKVX NSCLC
# A549 NSCLC = tested on: A549 NSCLC
# SK-OV-3 ovarian = tested on: SK-OV-3 ovarian
# SNB-75 CNS = tested on: SNB-75 CNS
# TK-10 renal = tested on: TK-10 renal
# UO-31 renal = tested on: UO-31 renal
# SF-268 CNS = tested on: SF-268 CNS
# SF-539 CNS = tested on: SF-539 CNS
# SF-295 CNS = tested on: SF-295 CNS
# T-47D breast = tested on: T-47D breast
# A498 renal = tested on: A498 renal
# K-562 leukemia = tested on: K-562 leukemia
# SW-620 colon = tested on: SW-620 colon
# SK-MEL-2 melanoma = tested on: SK-MEL-2 melanoma
# KM12 colon = tested on: KM12 colon
# NCI-H226 lung = tested on: NCI-H226 lung
# HCT-116 colon = tested on: HCT-116 colon
# MCF7 breast = tested on: MCF7 breast
# OVCAR-8 ovarian = tested on: OVCAR-8 ovarian
# OVCAR-5 ovarian = tested on: OVCAR-5 ovarian
# MDA-MB-231 breast = tested on: MDA-MB-231 breast
compound,measurement,setting,value
CCOC(=O)/C=C1\SC(=Nc2ccc(C#N)cc2)N(CCN2C(=O)/C(=C/C(=O)OCC)SC2=Nc2ccc(C#N)cc2)C1=O,GI50,SK-MEL-5 melanoma,5.43 µM
same,TGI,SK-MEL-5 melanoma,18.9 µM
same,GI50,LOX IMVI melanoma,0.585 µM
same,TGI,LOX IMVI melanoma,1.28 µM
same,GI50,BT-549 breast,2.98 µM
same,TGI,BT-549 breast,16.4 µM
same,GI50,HOP-62 NSCLC,2.55 µM
same,TGI,HOP-62 NSCLC,8.39 µM
same,GI50,COLO 205 colon,3.05 µM
same,TGI,COLO 205 colon,11.5 µM
same,GI50,HOP-92 NSCLC,13.7 µM
same,TGI,HOP-92 NSCLC,36.5 µM
same,GI50,CCRF-CEM leukemia,0.613 µM
same,TGI,CCRF-CEM leukemia,16.9 µM
same,GI50,HCC-2998 colon,2.4 µM
same,TGI,HCC-2998 colon,6.61 µM
same,GI50,EKVX NSCLC,5.2 µM
same,TGI,EKVX NSCLC,28.7 µM
same,GI50,A549 NSCLC,15.4 µM
same,TGI,A549 NSCLC,51.2 µM
same,GI50,SK-OV-3 ovarian,15.3 µM
same,TGI,SK-OV-3 ovarian,41.7 µM
same,GI50,SNB-75 CNS,5.02 µM
same,TGI,SNB-75 CNS,36.1 µM
same,GI50,TK-10 renal,14.8 µM
same,TGI,TK-10 renal,36.6 µM
same,GI50,UO-31 renal,2 µM
same,TGI,UO-31 renal,11.3 µM
same,GI50,SF-268 CNS,1.94 µM
same,TGI,SF-268 CNS,16.1 µM
same,GI50,SF-539 CNS,3.53 µM
same,TGI,SF-539 CNS,12.8 µM
same,GI50,SF-295 CNS,5.59 µM
same,TGI,SF-295 CNS,25.6 µM
same,GI50,T-47D breast,2.37 µM
same,TGI,T-47D breast,41.2 µM
same,GI50,A498 renal,6.82 µM
same,TGI,A498 renal,20.5 µM
same,GI50,K-562 leukemia,0.786 µM
same,TGI,K-562 leukemia,> 100 µM
same,GI50,SW-620 colon,0.416 µM
same,TGI,SW-620 colon,2.63 µM
same,GI50,SK-MEL-2 melanoma,12.1 µM
same,TGI,SK-MEL-2 melanoma,28.8 µM
same,GI50,KM12 colon,1.17 µM
same,TGI,KM12 colon,5.48 µM
same,GI50,NCI-H226 lung,3.53 µM
same,TGI,NCI-H226 lung,14.3 µM
same,GI50,HCT-116 colon,0.441 µM
same,TGI,HCT-116 colon,2.38 µM
same,GI50,MCF7 breast,0.353 µM
same,TGI,MCF7 breast,17.7 µM
same,GI50,OVCAR-8 ovarian,3.65 µM
same,TGI,OVCAR-8 ovarian,> 63.8 µM
same,GI50,OVCAR-5 ovarian,6.75 µM
same,TGI,OVCAR-5 ovarian,30.8 µM
same,GI50,MDA-MB-231 breast,2.09 µM
same,TGI,MDA-MB-231 breast,7.85 µM
